Source: patent US20260116910A1, “POLYCYCLIC COMPOUNDS AND METHODS THEREOF” (HEPAITECH (BEIJING) BIOPHARMA TECHNOLOGY CO., LTD., priority 2021, published 2026)
Where two headings read alike, the source gives them in different places.

Columns and labels:
human FXR (NR1H4) = biological target: T1, human FXR (NR1H4) (Homo sapiens, UniProt Q96RI1); assay: Human FXR (NR1H4) agonist assessment, FXRE-NanoLuc reporter in HEK293T cells; assay type: cell-based
T1 sequence (Q96RI1 1-476 isoform Q96RI1-1): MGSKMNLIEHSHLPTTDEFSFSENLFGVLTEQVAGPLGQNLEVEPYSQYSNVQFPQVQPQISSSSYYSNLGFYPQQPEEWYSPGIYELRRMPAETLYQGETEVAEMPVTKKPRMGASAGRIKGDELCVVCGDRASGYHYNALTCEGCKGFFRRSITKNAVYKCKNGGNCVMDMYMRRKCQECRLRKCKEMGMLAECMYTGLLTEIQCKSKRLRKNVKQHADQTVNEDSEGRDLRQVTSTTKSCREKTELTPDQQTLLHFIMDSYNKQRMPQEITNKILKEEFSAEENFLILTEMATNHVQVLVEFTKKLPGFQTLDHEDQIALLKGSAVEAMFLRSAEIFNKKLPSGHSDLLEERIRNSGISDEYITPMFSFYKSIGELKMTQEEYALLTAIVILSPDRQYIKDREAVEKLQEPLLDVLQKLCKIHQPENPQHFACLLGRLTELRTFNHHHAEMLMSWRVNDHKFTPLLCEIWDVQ
Outline: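 Read-out was NanoLuc luminescence in culture medium, measured 5 min after adding coelenterazine. Cells were HEK293T stably carrying human FXR and an FXRE reporter, exposed to compound for 24 hr at 37 °C. Vehicle was 0.01% DMSO. EC50 was obtained from sigmoid fits of gradient dilutions.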

MRGPRX4 = MRGPRX4 (Homo sapiens, UniProt Q96LA9); assay: MRGPRX4 activation, Fluo-8 Ca2+ FLIPR assay in HEK293T cells stably expressing MRGPRX4; assay type: cell-based; design: key to MRGPRX4 activation, Average / MRGPRX4 activation, Ave.: fluorescence change dF/F0
Outline: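 Response measured as dF/F0: 30 s baseline, then 150 s after compound addition on FLIPR Tetra, in HHBS after 40-60 min room-temperature loading with 2 μM Fluo-8 AM.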

[1] = FXR activation, HEK293T FXRE-NanoLuc reporter, 24 hr
[2] = FXR activation, HEK293T FXRE-NanoLuc reporter, 24 hr, read-out: EC50
[3] = MRGPRX4 activation, Ca2+ fluorescence, no activation in tested range reported as III, read-out: Activity (EC50 μM)

Sequence of MRGPRX4 (Q96LA9 whole entry): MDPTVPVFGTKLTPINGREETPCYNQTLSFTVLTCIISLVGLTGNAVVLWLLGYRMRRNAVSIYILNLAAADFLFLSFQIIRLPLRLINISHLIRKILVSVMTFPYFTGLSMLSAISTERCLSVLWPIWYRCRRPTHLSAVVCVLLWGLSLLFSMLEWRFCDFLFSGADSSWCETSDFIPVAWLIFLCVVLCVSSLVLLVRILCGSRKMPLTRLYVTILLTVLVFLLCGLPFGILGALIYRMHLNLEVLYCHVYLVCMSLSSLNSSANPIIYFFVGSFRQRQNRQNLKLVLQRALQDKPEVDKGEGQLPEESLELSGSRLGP

Row | Structure (SMILES) | Efficacy (maximum measured induction of NanoLuc, normalized to CDCA set as 100%) (human FXR (NR1H4); [1]) | EC50 (human FXR (NR1H4); [2]) [nM] | MRGPRX4 activation, Average (MRGPRX4; E3-9, Conc. (Log[M]) −4.0) | MRGPRX4 activation, Average (MRGPRX4; E3-9, Conc. (Log[M]) −4.5) | MRGPRX4 activation, Average (MRGPRX4; E3-9, Conc. (Log[M]) −5.0) | MRGPRX4 activation, Average (MRGPRX4; E3-9, Conc. (Log[M]) −5.4) | MRGPRX4 activation, Average (MRGPRX4; E3-9, Conc. (Log[M]) −5.9) | MRGPRX4 activation, Average (MRGPRX4; E3-9, Conc. (Log[M]) −6.4) | MRGPRX4 activation, Average (MRGPRX4; E3-9, Conc. (Log[M]) −6.9) | MRGPRX4 activation, Average (MRGPRX4; E3-9, Conc. (Log[M]) −7.3) | MRGPRX4 activation, Average (MRGPRX4; E3-9, Conc. (Log[M]) −7.8) | MRGPRX4 activation, Average (MRGPRX4; E3-9, Conc. (Log[M]) −8.3) | EC50 (MRGPRX4; [3]) [µM] | EC50 (human FXR (NR1H4)) [nM] | EC50 (MRGPRX4) [µM] | Efficacy (maximum measured induction of NanoLuc, normalized to CDCA set as 100%) (human FXR (NR1H4))
1 | CC[C@H]1[C@@H](O)[C@@H]2[C@H](CC[C@]3(C)[C@@H]([C@H](C)CCNC(=O)NS(=O)(=O)c4cccs4)CC[C@@H]23)[C@@]2(C)CCCC[C@@H]12 [5-25] | C (100%<efficacy <=300%) | 1000 to 10000 | 0.393 | 0.016 | 0.001 | 0.016 | 0.011 | 0.011 | 0.008 | 0.013 | 0.013 | 0.018 | > 100 |  |  | 
2 | CC[C@H]1[C@@H](O)[C@@H]2[C@H](CC[C@]3(C)[C@@H]([C@H](C)CCNC(=O)NS(=O)(=O)c4ccc5c(c4)CCC(C)(C)O5)CC[C@@H]23)[C@@]2(C)CCCC[C@@H]12 [5-29] | A (efficacy >400%) | < 1000 | 0.014 | 0.014 | 0.010 | 0.018 | 0.016 | 0.018 | 0.018 | 0.016 | 0.020 | 0.018 | > 100 |  |  | 
3 | CC[C@H]1[C@@H](O)[C@@H]2[C@H](CC[C@]3(C)[C@@H]([C@H](C)CCNC(=O)NS(=O)(=O)c4ccc(N5CCCCC5)nc4)CC[C@@H]23)[C@@]2(C)CCCC[C@@H]12 [5-30] | A (efficacy >400%) | < 1000 | 0.014 | 0.018 | 0.014 | 0.027 | 0.018 | 0.023 | 0.021 | 0.025 | 0.018 | 0.028 | > 100 |  |  | 
4 | CC[C@H]1[C@@H](O)[C@@H]2[C@H](CC[C@]3(C)[C@@H]([C@H](C)CCNS(=O)(=O)c4cc(F)ccc4F)CC[C@@H]23)[C@@]2(C)CCCC[C@@H]12 [6-2] | C (100%<efficacy <=300%) | 1000 to 10000 | 0.030 | 0.023 | 0.013 | 0.020 | 0.016 | 0.016 | 0.016 | 0.018 | 0.011 | 0.018 | > 100 |  |  | 
5 | CC[C@H]1[C@@H](O)[C@@H]2[C@H](CC[C@]3(C)[C@@H]([C@H](C)CCNS(=O)(=O)C[C@]45CC[C@H](CC4=O)C5(C)C)CC[C@@H]23)[C@@]2(C)CCCC[C@@H]12 [6-3] | C (100%<efficacy <=300%) | 1000 to 10000 | 0.016 | 0.008 | 0.020 | 0.016 | 0.018 | 0.018 | 0.011 | 0.018 | 0.020 | 0.013 | > 100 |  |  | 
6 | CC[C@H]1[C@@H](O)[C@@H]2[C@H](CC[C@]3(C)[C@@H]([C@H](C)CCNS(=O)(=O)CC(C)C)CC[C@@H]23)[C@@]2(C)CCCC[C@@H]12 [6-4] | C (100%<efficacy <=300%) | > 10000 | 0.027 | 0.011 | 0.011 | 0.018 | 0.016 | 0.011 | 0.018 | 0.018 | 0.020 | 0.018 | > 100 |  |  | 
7 | CC[C@H]1[C@@H](O)[C@@H]2[C@H](CC[C@]3(C)[C@@H]([C@H](C)CCNS(=O)(=O)C4CC4)CC[C@@H]23)[C@@]2(C)CCCC[C@@H]12 [6-5] | C (100%<efficacy <=300%) | 1000 to 10000 | 0.025 | 0.020 | 0.018 | 0.020 | 0.018 | 0.016 | 0.018 | 0.016 | 0.020 | 0.018 | > 100 |  |  | 
8 | CC[C@H]1[C@@H](O)[C@@H]2[C@H](CC[C@]3(C)[C@@H]([C@H](C)CCN=C=S)CC[C@@H]23)[C@@]2(C)CCCC[C@@H]12 [7-1] | C (100%<efficacy <=300%) |  | 0.020 | 0.018 | 0.013 | 0.013 | 0.011 | 0.013 | 0.004 | 0.008 | 0.006 | 0.011 |  | > 10000 | > 100 | 
9 | CC[C@H]1[C@@H](O)[C@@H]2[C@H](CC[C@]3(C)[C@@H]([C@H](C)CCNC(=O)C(=O)NS(=O)(=O)c4cccs4)CC[C@@H]23)[C@@]2(C)CCCC[C@@H]12 [8-2] |  | < 1000 | 0.020 | 0.018 | 0.018 | 0.016 | 0.018 | 0.011 | 0.018 | 0.008 | 0.011 | 0.006 | > 100 |  |  | B (key: A: efficacy >400%; B: 300%<efficacy <=400%; C: 100%<efficacy <=300%; D: efficacy <=100%)
